Experimental data taken from US9637420B2, “Increased longevity of the nitrogen content of soil through improved liquid delivery formulations of urease inhibitors and/or nitrification inhibitors designed for urea and manure based fertilizers” (priority 2013, dated 2017).

Experiment: Degradation study of 2-chloro-6-trichloromethylpyridine/NBPT in DMSO at 50° C. by LC
Assay type: physicochemical
Procedure: A degradation study was performed using 2-chloro-6-trichloromethylpyridine/nBPT in DMSO
2-chloro-6-trichloromethylpyridine/NBPT=1/1 (w/w) mixture was dissolved in DMSO. LC's were done to analyze the content decrease along with time. All samples were sealed and protected under N2. All sample were stored 50° C.
C18 column, 255 nm. Retention time: 40 min. temperature: 30° C. 15 μL injection. Peak area percentage were calculated to analyze the concentration.

Structure (SMILES) | content of active, LC peak area percentage (week 1) [peak area percentage] | content of active, LC peak area percentage (week 2) [peak area percentage] | content of active, LC peak area percentage (week 3) [peak area percentage] | content of active, LC peak area percentage (week 4) [peak area percentage] | content of active, LC peak area percentage (week 6) [peak area percentage] | content of active, LC peak area percentage (week 7) [peak area percentage] | content of active, LC peak area percentage (week 8) [peak area percentage] | content of active, LC peak area percentage (week 9) [peak area percentage] | content of active, LC peak area percentage (week 10) [peak area percentage] | content of active, LC peak area percentage (week 11) [peak area percentage] | content of active, LC peak area percentage (week 12) [peak area percentage] | content of active, LC peak area percentage (week 13) [peak area percentage] | content of active, LC peak area percentage (week 14) [peak area percentage] | content of active, LC peak area percentage (week 15) [peak area percentage] | content of active, LC peak area percentage (week 16) [peak area percentage] | content of active, LC peak area percentage (week 17) [peak area percentage] | content of active, LC peak area percentage (week 18) [peak area percentage]
CCCCNP(N)(N)=S [n-butylthiophosphoric triamide] | 100 | 99.6 | 98 | 97.6 | 96.5 | 95.3 | 94.7 | 93 | 92.2 | 92.1 | 91.7 | 91 | 90.88 | 90.01 | 99.55 | 89.06 | 88.6
Clc1cccc(C(Cl)(Cl)Cl)n1 [2-chloro-6-trichloromethylpyridine] | 100 | 99 | 99.4 | 98.3 | 95.3 | 93.2 | 92.3 | 90.8 | 88 | 86.7 | 86.4 | 85 | 84.33 | 83.56 | 81.45 | 81 | 80.09
